Results from the supplement of paper PMC11208160.

Test: recombinant barcode read abundance after kanamycin selection (control-corrected) (log10(CPM+1)); higher = more efficient recombination; sequences stand for … in AGTGCAGAGAAAATCGGCCAGTTTTCTCTGCCTGCAGTCCGCATGCCGT…AGATTTATGCAGCGGACTGCCTTTCTCCCAAAGTGATAAACCGGACAGTATCATGGACCGGTTTTCCCGGTAATCCGTATTTGCAAGGTTGGTTTCACT; site = the 11-nt target
In short: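 In E. coli, a pooled library matched targets to IS621 bridge RNA target-binding loops and was introduced alongside a donor plasmid. Cells went onto chloramphenicol/ampicillin/kanamycin with 0.1 mM IPTG or onto chloramphenicol/ampicillin LB agar as control, in duplicate. Recombination efficiency, from recombinant-junction barcodes as counts per million, is averaged and control-corrected. It is reported as log10(CPM+1).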
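Also: IS621 recombinase and bridge RNA in Escherichia coli cells.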

In order of rising “recombinant barcode read abundance (log10)” value:
1. TCTACGTCTTGGGTTCTAACCTGTTGCCT (site TCTACCTCTAG)  0.00686
2. TCTCATTCTTGGGTTCTAACCTGTTGCGT (site TCTAATTCTAC)  0.0146
3. TCGCTAGCTTGGGTTCTAACCTGTTGCCT (site GCGCTAGCTAG)  0.0173
4. TCTACCTCTTGGGTTCTAACCTGTTGCCT (site TCTACATCTAG)  0.0227
5. TCTAAGACTTGGGTTCTAACCTGTTGCGC (site CTACCCTCTAG)  0.0242
6. TCTAAGCCTTGGGTTCTAACCTGTTGCAT (site TCTAATCCTAT)  0.0292
7. TCTACGTCTTGGGTTCTAACCTGTTGCCT (site TCTACATCTAG)  0.0403
8. TCTACCTCTTGGGTTCTAACCTGTTGCCT (site TCTACTTCTAG)  0.0484
9. TCGTGCCCTTGGGTTCTAACCTGTTGCCT (site TCGTGCTCTAG)  0.0522
10. TCGCTAGCTTGGGTTCTAACCTGTTGCCT (site ACGCTAGCTAG)  0.0632
11. TCGTGAGCTTGGGTTCTAACCTGTTGCCT (site TAGTGAGCTAG)  0.0646
12. TCGTGCCCTTGGGTTCTAACCTGTTGCCT (site TCGTGCACTAG)  0.0746
13. TCTCACCCTTGGGTTCTAACCTGTTGCCT (site TCTGATCCTAG)  0.0773
14. TCGCGTGCTTGGGTTCTAACCTGTTGCGG (site CATTCCACTAG)  0.0782
15. TCTAAACCTTGGGTTCTAACCTGTTGCAT (site TCTAAGCCTAT)  0.0795
16. TCGTTCGCTTGGGTTCTAACCTGTTGCCG (site TCGTTCGCTCG)  0.0881
17. TCGCTAGCTTGGGTTCTAACCTGTTGCCT (site TCGCTAGCTAG)  0.0976
18. TCTACCTCTTGGGTTCTAACCTGTTGCCT (site TCTACGTCTAG)  0.102
19. TCTACGTCTTGGGTTCTAACCTGTTGCCT (site TCTACTTCTAG)  0.126
20. TCTAAACCTTGGGTTCTAACCTGTTGCAT (site TCTAACCCTAT)  0.142
21. TCGTGAGCTTGGGTTCTAACCTGTTGCTG (site GGTGACCCTAT)  0.147
22. TCTAAGCCTTGGGTTCTAACCTGTTGCAT (site TCTAAACCTAT)  0.152
23. TCGTGCCCTTGGGTTCTAACCTGTTGCCT (site TCGTGCGCTAG)  0.165
24. TCTACGTCTTGGGTTCTAACCTGTTGCCT (site TCTACGTCTAG)  0.168
25. TCGTATACTTGGGTTCTAACCTGTTGCGG (site TAGTATACTCA)  0.193
26. TCTAAACCTTGGGTTCTAACCTGTTGCAT (site TCTAAACCTAT)  0.197
27. TCGCGTTCTTGGGTTCTAACCTGTTGCTT (site TCGCATTCTAT)  0.217
28. TCGTGAGCTTGGGTTCTAACCTGTTGCCT (site TCGTGAGCTAG)  0.226
29. TCTAAACCTTGGGTTCTAACCTGTTGCAT (site TCTAATCCTAT)  0.229
30. TCGCGTCCTTGGGTTCTAACCTGTTGCAG (site TCACGTCCTCT)  0.231
31. TCTAAGCCTTGGGTTCTAACCTGTTGCAT (site TCTAACCCTAT)  0.259
32. TCGTGAGCTTGGGTTCTAACCTGTTGCTG (site TCGTGAGCTCA)  0.301
33. TCGCGTGCTTGGGTTCTAACCTGTTGCGG (site TCGCGTGCTCC)  0.363
34. TCGTTCGCTTGGGTTCTAACCTGTTGCCG (site GTCAGATCTAA)  0.37
35. TCGCGTCCTTGGGTTCTAACCTGTTGCAG (site TCGCGTCCTCT)  0.379
36. TCGTATACTTGGGTTCTAACCTGTTGCGG (site TCGTATACTCC)  0.396
37. TCGTGCCCTTGGGTTCTAACCTGTTGCCT (site TCGTGCCCTAG)  0.398
38. TCGCTAGCTTGGGTTCTAACCTGTTGCCT (site CCGCTAGCTAG)  0.4
39. TCTCACCCTTGGGTTCTAACCTGTTGCCT (site TCTCACCCTAG)  0.516
40. TCTAAGCCTTGGGTTCTAACCTGTTGCAT (site TCTAAGCCTAT)  0.531
41. TCGCGTTCTTGGGTTCTAACCTGTTGCTT (site TCGCGTTCTAA)  0.677
42. TCTACCTCTTGGGTTCTAACCTGTTGCCT (site TCTACCTCTAG)  1.19
43. TCTAAGACTTGGGTTCTAACCTGTTGCGC (site TCTAAGACTGC)  1.26
